Calls of active or inactive are those of the source.
Assays:
[1] = target: T1, Endoribonuclease toxin MazF (Escherichia coli K-12, UniProt P0AE70); test: substrate-only fluorescence increase artefacts – biochemical, single-stranded RNase substrate, counter-screen for MazEF activator project, dose response (AID 588502); format: functional
T1 sequence (P0AE70 whole entry): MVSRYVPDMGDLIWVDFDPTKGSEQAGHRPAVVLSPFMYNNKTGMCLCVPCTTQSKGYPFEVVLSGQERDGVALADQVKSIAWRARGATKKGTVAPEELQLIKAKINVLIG

[2] = target: T1, Endoribonuclease toxin MazF; test: activation of MazEF endoribonuclease cleavage – biochemical, fluorescence, single-stranded RNA substrate, uHTS hits, dose response (AID 588481); format: functional
[3] = viability of PTEN-deleted HCT116 cells – cell-based, HCT116 PTEN knockout, dose response (AID 1047); format: functional;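 note: HCT116 colon tumor cells with PTEN knocked out; cells exposed to compound for 60 hours before readout; potency for loss of cell viability measured by luminescence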
Melanocortin receptor 4 = Melanocortin receptor 4 (Homo sapiens, UniProt P32245); format: functional, cell-based;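 note: Cell-based assay with luminescence read-out, confirmatory dose-response testing for agonist activity of biased ligands at MC4R; human U2OS cells with tagged receptor and beta-arrestin; potency of agonists that increase receptor coupling to beta-arrestin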
[4] = viability of HCT116 lacking mutant beta-catenin – cell-based, human colon tumor, dose response (AID 1045); format: functional;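 note: HCT116 colon tumor cells with beta catenin knocked out; cells exposed to compound for 60 hours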
[5] = target: T2, Low molecular weight phosphotyrosine protein phosphatase (Homo sapiens, UniProt P24666); format: functional; conditions: read-out: IC50_Mean
T2 sequence (P24666 whole entry): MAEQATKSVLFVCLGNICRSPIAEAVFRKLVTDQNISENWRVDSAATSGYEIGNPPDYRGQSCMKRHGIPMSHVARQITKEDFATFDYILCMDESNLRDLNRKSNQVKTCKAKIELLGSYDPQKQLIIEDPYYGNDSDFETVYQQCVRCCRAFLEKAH

[6] = target: T3, Calpain-2 catalytic subunit (Sus scrofa, UniProt P43367); test: m-calpain protease blockers, concentration series – biochemical, fluorogenic peptide substrate, dose response (AID 1420); format: functional
T3 sequence (P43367 whole entry): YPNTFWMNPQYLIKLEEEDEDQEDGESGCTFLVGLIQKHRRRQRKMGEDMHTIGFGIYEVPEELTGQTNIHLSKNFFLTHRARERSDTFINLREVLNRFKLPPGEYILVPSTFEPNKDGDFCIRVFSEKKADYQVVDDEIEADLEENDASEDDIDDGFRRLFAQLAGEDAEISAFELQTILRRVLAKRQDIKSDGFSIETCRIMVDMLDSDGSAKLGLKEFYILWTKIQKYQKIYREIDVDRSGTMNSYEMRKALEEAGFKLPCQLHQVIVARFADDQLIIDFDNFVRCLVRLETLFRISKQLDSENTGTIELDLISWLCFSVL

[7] = target: T2, Low molecular weight phosphotyrosine protein phosphatase; format: functional; conditions: read-out: IC50_Mean; remark: listed apart in the source
[8] = target: T4, DNA repair and recombination protein RAD54-like (Homo sapiens, UniProt Q92698); test: RAD54 Holliday junction migration blockers – biochemical, fluorescence, cherry-picked samples, dose series, confirmation (AID 651657); format: functional
T4 sequence (Q92698 whole entry): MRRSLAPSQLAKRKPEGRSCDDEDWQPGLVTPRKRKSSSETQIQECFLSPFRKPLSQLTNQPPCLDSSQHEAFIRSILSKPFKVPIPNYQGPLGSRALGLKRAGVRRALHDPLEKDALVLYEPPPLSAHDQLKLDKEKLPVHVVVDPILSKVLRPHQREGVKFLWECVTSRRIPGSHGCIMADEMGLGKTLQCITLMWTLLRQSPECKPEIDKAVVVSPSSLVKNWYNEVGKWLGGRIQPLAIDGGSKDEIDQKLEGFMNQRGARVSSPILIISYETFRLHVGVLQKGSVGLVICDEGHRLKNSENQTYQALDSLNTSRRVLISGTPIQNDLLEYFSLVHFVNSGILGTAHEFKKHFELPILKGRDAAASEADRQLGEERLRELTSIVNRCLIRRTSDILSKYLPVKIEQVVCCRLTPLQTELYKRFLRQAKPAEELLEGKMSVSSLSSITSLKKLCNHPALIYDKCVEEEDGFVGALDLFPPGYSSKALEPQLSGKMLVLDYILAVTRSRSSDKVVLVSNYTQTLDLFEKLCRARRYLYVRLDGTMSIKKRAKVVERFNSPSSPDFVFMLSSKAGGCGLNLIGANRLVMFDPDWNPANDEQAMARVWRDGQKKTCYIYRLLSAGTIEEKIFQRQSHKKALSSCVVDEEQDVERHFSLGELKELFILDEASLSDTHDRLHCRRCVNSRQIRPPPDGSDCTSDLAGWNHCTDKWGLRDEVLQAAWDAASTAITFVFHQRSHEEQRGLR

Cytochrome P450 3A4 = Cytochrome P450 3A4 (Homo sapiens, UniProt P08684);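 note: CYP3A4 tested as one member of a cytochrome P450 panel screen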
Cytochrome P450 2C9 = Cytochrome P450 2C9 (Homo sapiens, UniProt P11712)
[9] = target: T5, Zinc finger protein mex-5 (Caenorhabditis elegans, UniProt Q9XUB2); test: potency of MEX-5 RNA-binding blockers – biochemical, C. elegans, fluorescence polarization, dose response (AID 1960)
T5 sequence (Q9XUB2 whole entry): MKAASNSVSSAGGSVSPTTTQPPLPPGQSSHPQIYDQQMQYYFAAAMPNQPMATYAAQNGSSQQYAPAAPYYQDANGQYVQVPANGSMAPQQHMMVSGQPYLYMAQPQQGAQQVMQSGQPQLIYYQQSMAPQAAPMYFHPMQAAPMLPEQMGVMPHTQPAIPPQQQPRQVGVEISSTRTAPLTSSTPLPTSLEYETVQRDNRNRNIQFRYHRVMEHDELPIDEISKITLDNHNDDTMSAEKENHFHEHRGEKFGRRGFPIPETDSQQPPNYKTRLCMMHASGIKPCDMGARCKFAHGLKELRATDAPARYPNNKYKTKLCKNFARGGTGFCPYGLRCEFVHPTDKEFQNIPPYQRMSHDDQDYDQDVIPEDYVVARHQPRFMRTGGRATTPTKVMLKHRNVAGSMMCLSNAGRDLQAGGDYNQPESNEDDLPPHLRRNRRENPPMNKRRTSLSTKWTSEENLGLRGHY

[10] = target: T6, RNA-binding protein pos-1 (Caenorhabditis elegans, UniProt G5EF15); test: disruptors of C. elegans POS-1 RNA interaction – biochemical, fluorescence polarization, dose response (AID 1964);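 note: purified POS-1 fused to maltose binding protein made in E. coli; potency of compounds blocking POS-1 binding to fluorescent RNA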
T6 sequence (G5EF15 whole entry): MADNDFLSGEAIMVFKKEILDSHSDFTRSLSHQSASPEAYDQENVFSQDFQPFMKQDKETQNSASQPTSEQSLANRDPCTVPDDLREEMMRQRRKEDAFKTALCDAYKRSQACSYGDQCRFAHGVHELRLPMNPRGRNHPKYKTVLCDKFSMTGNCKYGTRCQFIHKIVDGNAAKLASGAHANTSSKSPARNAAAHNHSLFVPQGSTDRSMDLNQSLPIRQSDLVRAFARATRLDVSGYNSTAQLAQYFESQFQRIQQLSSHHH

Protein Wnt-3a = Protein Wnt-3a (Mus musculus, UniProt P27467); test: antagonism of Wnt3a pathway luciferase reporter – Wnt-LIGHT cells, luminescence, selectivity assay for Gli-SUFU antagonist project, dose response (AID 651570); format: functional; conditions: read-out: IC50_Mean;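 note: Wnt-LIGHT reporter cells stimulated with conditioned medium from Wnt3a-producing cells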
[11] = Luminescence Cell-Based Dose Retest to Confirm Inhibitors of Cancer Stem Cells. [Related pubchem assays (depositor defined):AID2717, AID2721]; format: functional; conditions: Homo sapiens
[12] = reduction of Shn3 3'UTR-driven luciferase in osteoblasts – cell-based, Clone20 osteoblasts, firefly luciferase, cherry-picked, dose response (AID 624132); format: functional;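 note: firefly luciferase luminescence from reporter carrying the Shn3 3'UTR in osteoblasts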
INS1 = test: INS-1E survival protection against cytokine death – cell-based, luminescence, retest, dose response (AID 449756); format: functional; conditions: Rattus norvegicus;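 note: cell death triggered by IL-1 beta plus TNF-alpha plus IFN-gamma mixture; protective hits raise ATP signal compared with cytokine alone wells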
[13] = loss of viability in HepG2 cells – cell-based, CellTiter-Glo, cherry-picked, cytotoxicity control for Shn3 inhibitor project, dose response (AID 624134); format: functional
Cytochrome P450 1A2 = target: T7, Cytochrome P450 1A2 (Homo sapiens, UniProt P05177);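 note: PubChem cytochrome P450 panel assay, CYP1A2 panel member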
T7 sequence (P05177 whole entry): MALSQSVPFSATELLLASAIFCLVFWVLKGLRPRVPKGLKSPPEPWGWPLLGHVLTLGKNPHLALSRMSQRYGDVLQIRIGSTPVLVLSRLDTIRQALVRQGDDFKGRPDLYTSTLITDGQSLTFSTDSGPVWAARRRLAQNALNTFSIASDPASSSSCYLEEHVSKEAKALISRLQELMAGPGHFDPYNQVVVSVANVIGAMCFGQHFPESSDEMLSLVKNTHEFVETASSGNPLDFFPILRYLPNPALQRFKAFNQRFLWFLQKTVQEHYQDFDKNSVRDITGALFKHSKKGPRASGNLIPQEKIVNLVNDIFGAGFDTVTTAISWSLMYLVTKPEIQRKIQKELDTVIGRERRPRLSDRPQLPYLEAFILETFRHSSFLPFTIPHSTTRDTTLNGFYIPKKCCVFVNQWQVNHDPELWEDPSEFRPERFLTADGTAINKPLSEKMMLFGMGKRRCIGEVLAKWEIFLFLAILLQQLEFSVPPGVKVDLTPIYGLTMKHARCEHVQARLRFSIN

Cytochrome P450 2D6 = Cytochrome P450 2D6 (Homo sapiens, UniProt P10635);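 note: CYP2D6 member of a cytochrome P450 panel assay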
H9c2 = test: cells; format: functional, cell-based; conditions: Rattus norvegicus, H9c2, Myocardium;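 note: confirmatory concentration-response retest of ultra-high-throughput screening hits for modulation of myocardial damage; cell death induced by hydrogen peroxide oxidative stress; compound pretreatment for 60 min then peroxide exposure for 2 h; potency is for protecting the cells against peroxide damage rather than for killing them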
[14] = target: T8, Heat shock factor protein 1 (Mus musculus, UniProt P38532); test: decrease of HSF1-responsive luciferase luminescence – cell-based, NIH3T3, dose retest, confirmation (AID 2382); format: functional;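 note: NIH3T3 fibroblasts with HSF1-driven luciferase reporter stressed by proteasome inhibitor MG132; luminescence from HSF1-driven luciferase expression after 8 hours of MG132 stress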
T8 sequence (P38532 whole entry): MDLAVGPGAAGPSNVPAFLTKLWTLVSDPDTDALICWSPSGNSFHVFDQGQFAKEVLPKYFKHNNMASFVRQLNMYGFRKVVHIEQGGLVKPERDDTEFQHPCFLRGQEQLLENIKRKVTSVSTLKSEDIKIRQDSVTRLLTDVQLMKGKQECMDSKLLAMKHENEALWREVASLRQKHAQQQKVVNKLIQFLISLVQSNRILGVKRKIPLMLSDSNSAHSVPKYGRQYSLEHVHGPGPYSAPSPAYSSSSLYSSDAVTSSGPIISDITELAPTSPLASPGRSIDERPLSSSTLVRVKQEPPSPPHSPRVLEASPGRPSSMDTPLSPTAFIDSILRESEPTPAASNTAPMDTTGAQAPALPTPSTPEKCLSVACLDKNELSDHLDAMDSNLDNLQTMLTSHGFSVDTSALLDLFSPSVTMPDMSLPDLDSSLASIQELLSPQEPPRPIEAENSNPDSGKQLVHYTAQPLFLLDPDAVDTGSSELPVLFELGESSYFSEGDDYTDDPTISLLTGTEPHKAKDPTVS

[15] = target: Eukaryotic translation initiation factor 4E (Mus musculus, UniProt P63073); test: blockers of eIF4G binding by eIF4E – biochemical, TR-FRET, dose response (AID 855); format: functional;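 note: potency for disrupting eIF4E binding to eIF4GI seen as loss of FRET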
[16] = Fluorescence-based cell-based high throughput dose response assay for inhibitors of the interaction of nucleotide-binding oligomerization domain containing 2 (NOD2) and the receptor-interacting serine-threonine kinase 2 (RIPK2).; format: functional; conditions: Homo sapiens

Sequence of Cytochrome P450 3A4 (P08684 whole entry): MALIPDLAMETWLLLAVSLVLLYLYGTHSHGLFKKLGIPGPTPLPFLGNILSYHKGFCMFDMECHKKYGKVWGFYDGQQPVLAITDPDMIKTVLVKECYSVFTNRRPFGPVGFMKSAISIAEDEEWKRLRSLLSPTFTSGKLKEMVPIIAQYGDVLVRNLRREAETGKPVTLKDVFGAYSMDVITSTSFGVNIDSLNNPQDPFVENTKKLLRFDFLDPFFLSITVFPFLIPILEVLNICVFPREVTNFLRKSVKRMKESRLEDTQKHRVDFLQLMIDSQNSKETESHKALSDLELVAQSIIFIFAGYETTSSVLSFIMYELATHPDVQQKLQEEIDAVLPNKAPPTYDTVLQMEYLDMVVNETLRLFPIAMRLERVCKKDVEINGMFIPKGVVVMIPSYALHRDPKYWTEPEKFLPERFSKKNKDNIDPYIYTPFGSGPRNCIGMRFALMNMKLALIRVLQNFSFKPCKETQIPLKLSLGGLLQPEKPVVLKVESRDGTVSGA
Sequence of Melanocortin receptor 4 (P32245 whole entry): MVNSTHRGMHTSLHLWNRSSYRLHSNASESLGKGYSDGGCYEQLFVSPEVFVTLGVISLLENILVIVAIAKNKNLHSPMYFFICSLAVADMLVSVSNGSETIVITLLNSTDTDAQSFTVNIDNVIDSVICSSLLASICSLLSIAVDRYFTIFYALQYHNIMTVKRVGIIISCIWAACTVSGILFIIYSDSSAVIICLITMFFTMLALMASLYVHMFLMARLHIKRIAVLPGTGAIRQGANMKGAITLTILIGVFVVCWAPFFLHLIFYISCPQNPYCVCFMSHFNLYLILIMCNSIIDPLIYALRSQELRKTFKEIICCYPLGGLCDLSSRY
Sequence of Protein Wnt-3a (P27467 whole entry): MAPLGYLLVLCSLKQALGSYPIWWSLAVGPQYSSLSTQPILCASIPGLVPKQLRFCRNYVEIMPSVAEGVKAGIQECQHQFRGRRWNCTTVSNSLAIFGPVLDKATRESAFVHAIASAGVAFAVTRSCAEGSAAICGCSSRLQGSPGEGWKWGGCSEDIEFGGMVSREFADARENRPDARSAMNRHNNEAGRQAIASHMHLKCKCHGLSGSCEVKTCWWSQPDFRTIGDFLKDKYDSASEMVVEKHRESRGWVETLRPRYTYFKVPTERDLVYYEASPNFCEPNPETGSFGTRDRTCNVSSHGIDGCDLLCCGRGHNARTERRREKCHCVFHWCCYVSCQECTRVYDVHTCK
Sequence of Cytochrome P450 2C9 (P11712 whole entry): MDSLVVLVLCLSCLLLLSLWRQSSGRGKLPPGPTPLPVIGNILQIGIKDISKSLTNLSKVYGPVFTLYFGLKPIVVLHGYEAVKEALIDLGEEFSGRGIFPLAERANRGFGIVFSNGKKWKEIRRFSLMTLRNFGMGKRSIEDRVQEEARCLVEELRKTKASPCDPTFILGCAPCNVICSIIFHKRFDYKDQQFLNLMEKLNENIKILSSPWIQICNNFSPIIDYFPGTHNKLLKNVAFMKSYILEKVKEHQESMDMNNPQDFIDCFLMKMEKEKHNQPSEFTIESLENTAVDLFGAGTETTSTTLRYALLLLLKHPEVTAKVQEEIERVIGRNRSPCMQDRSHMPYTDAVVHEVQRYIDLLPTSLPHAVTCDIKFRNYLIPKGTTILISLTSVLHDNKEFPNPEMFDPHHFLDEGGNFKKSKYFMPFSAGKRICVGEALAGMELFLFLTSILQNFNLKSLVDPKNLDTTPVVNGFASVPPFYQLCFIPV
Sequence of Eukaryotic translation initiation factor 4E (P63073 whole entry, the tested form may be a part): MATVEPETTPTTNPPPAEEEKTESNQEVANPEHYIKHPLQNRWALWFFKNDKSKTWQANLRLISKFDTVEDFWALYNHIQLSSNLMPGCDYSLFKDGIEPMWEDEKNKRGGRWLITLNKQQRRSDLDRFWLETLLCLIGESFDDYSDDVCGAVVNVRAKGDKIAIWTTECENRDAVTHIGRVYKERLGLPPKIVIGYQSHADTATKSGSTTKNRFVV
Sequence of Cytochrome P450 2D6 (P10635 whole entry): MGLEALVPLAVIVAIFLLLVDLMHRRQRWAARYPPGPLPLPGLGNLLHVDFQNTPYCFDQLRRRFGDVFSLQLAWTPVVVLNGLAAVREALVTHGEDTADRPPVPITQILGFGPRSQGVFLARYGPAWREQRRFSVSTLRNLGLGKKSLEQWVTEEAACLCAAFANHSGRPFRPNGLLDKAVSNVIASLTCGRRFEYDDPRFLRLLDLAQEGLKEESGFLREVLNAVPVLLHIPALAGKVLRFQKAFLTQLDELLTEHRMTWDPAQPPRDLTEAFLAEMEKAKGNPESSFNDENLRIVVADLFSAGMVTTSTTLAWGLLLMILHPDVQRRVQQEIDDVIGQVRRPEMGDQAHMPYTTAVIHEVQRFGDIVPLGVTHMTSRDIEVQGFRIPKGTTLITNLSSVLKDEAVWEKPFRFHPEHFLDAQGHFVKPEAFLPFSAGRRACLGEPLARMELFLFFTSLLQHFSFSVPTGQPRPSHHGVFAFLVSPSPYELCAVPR

CCN(CC)S(=O)(=O)c1ccc(Cl)c(NC(=O)c2cc(Cl)ccc2Cl)c1
EC50 [1]: > 99 µM (inactive) | EC50 [2]: > 99 µM (inactive)

Cc1ccc(-c2nnc(-c3ccc(NC(=O)Cc4cccs4)cc3)o2)cc1
EC50 [3]: 5.97 µM (active) | EC50 (Melanocortin receptor 4): > 89.2 µM (inactive) | EC50 [4]: 4.87 µM (active)

COc1ccc(/N=c2\[nH]c(=O)c3cc([N+](=O)[O-])ccc3s2)cc1
IC50 [5]: 13.4 µM (active) | IC50 [6]: > 50 µM (not active) | IC50 [7]: 15.5 µM (active)

c1ccc(-c2nc(NCCCN3CCOCC3)c3ccccc3n2)cc1
IC50 [5]: 17 µM (active) | IC50 [7]: 37.2 µM (inactive) | AC50 [8]: 32.4 µM (active)

CC(=O)CC(=O)[C@@]1(O)CC[C@@H]2[C@@H]3C=C(C)C4=CC(=O)CC[C@@H]4[C@H]3CC[C@]21C
AC50 (Cytochrome P450 3A4): inconclusive | AC50 (Cytochrome P450 2C9): 12.6 µM (inconclusive)

C/C=C1\C(=O)C[C@@H]2[C@@H]3CCC4=CC(=O)CC[C@@]4(C)[C@H]3CC[C@@]12C
AC50 (Cytochrome P450 3A4): inconclusive | AC50 (Cytochrome P450 2C9): 39.8 µM (inconclusive)

CCOC(=O)Cc1csc(NC(=O)c2sc3nc4cc(C)ccc4cc3c2N)n1
EC50 [9]: 1.62 µM (inconclusive) | EC50 (Melanocortin receptor 4): > 89.2 µM (inactive) | EC50 [10]: 27.2 µM (inconclusive)

O=S(=O)(NCc1ccncc1)c1ccc(S(=O)(=O)NCC2CCCO2)cc1 (stereo not given)
IC50 (Protein Wnt-3a): 7.09 µM (active) | AC50 [11]: 0.973 µM (active)

COc1ccc(NS(=O)(=O)c2cccc(NC(=O)c3ccc(S(=O)(=O)N4CCCCCC4)cc3)c2)cc1
AC50 [12]: 0.829 µM (active) | IC50 (Protein Wnt-3a): 1.76 µM (active) | AC50 (INS1): 3.12 µM (active) | AC50 [13]: 38.8 µM (active)

CC(=O)c1cc2c(C)c(C(=O)c3ccccc3)oc2cc1O
EC50 [1]: > 99 µM (inactive) | EC50 [2]: > 99 µM (inactive)

COCCNc1cc(-c2ccccc2C(F)(F)F)ncn1
AC50 (Cytochrome P450 3A4): inconclusive | AC50 (Cytochrome P450 1A2): 15.8 µM (inconclusive)

CN1CCN(c2nc(-c3ccncc3)nc3ccccc23)CC1
AC50 [8]: 8.41 µM (active)

NC1=Nc2ccccc2Oc2ccccc21
AC50 (Cytochrome P450 3A4): inconclusive | AC50 (Cytochrome P450 2D6): 20 µM (inconclusive)

Cc1cc(O)c(/C=N/c2ccc(N3CCOCC3)cc2)c(C)c1Cl
EC50 [1]: > 99 µM (inactive) | IC50 (H9c2): > 79 µM (inactive) | EC50 [2]: 53.5 µM (inactive) | EC50 [14]: > 195 µM (not active)

CC(=O)Nc1cc(-c2ccccc2N(C)C)cn2c(-c3ccccc3)cnc12
EC50 (Melanocortin receptor 4): > 89.2 µM (inactive)

COc1ccc(-c2cnnc(N/N=C/c3ccc(-c4ccc([N+](=O)[O-])cc4)o3)n2)cc1
IC50 [5]: 6.62 µM (active) | IC50 [15]: 50 µM (inactive) | IC50 [7]: > 80 µM (inactive)

CCOC(=O)[C@]12Cc3cc(OC)ccc3[C@H]1N(C1CCCCC1)C(=O)c1cc(OC)ccc12
IC50 [16]: 4.81 µM (active)
